The text below walks through data of patent publication US20050197350A1, “Novel quinoline, tetrahydroquinazoline, and pyrimidine derivatives and methods of treatment related to the use thereof” (TAISHO PHARMACEUTICAL CO., LTD., priority 2003, published 2005).

SMILES strings stand for the structures.

The first assay deals with MCH receptors. The assay is described as follows: MCH receptor activity class (method not given). To be noted: MCH receptor activity class 1-3 (percent of control at 10^-7 M or IC50).
For `Cc1ccccc1NC(=O)NC[C@H]1CC[C@@H](Nc2nc3c(c(N(C)C)n2)CCCC3)CC1` [compound 2460], the class is given as 3 (Class 3 The value of percent of control at 10^−7 M was more than 60% or the value of IC50 was more than 200 nM.). The same measure, in the same setting: the value for `Cc1cc(C)c(NC(=S)N[C@H]2CC[C@@H](Nc3nccc(N(C)C)n3)CC2)cc1C` [compound 2334] was 3 (Class 3 The value of percent of control at 10^−7 M was more than 60% or the value of IC50 was more than 200 nM.).

The same assay, now with this note: MCH receptor; class by percent of control at 10^-7 M or IC50.
As for `Cc1ccc(CNC(=S)N[C@H]2CC[C@@H](Nc3nc4c(c(N(C)C)n3)CCCC4)CC2)cc1` [compound 2021], the class is 3 (Class 3 The value of percent of control at 10^−7 M was more than 60% or the value of IC50 was more than 200 nM.). Same read-out and setting: the value for `CN(C)c1cc(N[C@H]2CC[C@@H](CNC(=O)CC3CCCC3)CC2)nc2ccccc12` [compound 202] was 3 (Class 3 The value of percent of control at 10^−7 M was more than 60% or the value of IC50 was more than 200 nM.). On the same count and under the same terms, the figure for `CN(C)c1cc(N[C@H]2CC[C@@H](NC(=O)c3ccc(F)cc3Cl)CC2)nc2ccccc12` [compound 61] is 3 (Class 3 The value of percent of control at 10^−7 M was more than 60% or the value of IC50 was more than 200 nM.); for `CCCCCCCCCCc1ccc(NC(=S)N[C@H]2CC[C@@H](Nc3nc4c(c(N(C)C)n3)CCCC4)CC2)cc1` [compound 2048] it is 3 (Class 3 The value of percent of control at 10^−7 M was more than 60% or the value of IC50 was more than 200 nM.).

Staying with this assay, now noted: activity class 1-3: percent of control at 10^-7 M or IC50.
As to `CN(C)c1cc(N[C@H]2CC[C@@H](NC(=O)OCc3ccccc3Cl)CC2)nc2ccccc12` [compound 1556], the class is 3 (Class 3 The value of percent of control at 10^−7 M was more than 60% or the value of IC50 was more than 200 nM.).

For the compound `CN(C)c1ccnc(N[C@H]2CC[C@@H](CNCCCCCCc3ccccc3)CC2)n1` [compound 1526], the class is 3 (Class 3 The value of percent of control at 10^−7 M was more than 60% or the value of IC50 was more than 200 nM.).

The same assay, now with this note: activity class per percent of control at 10^-7 M or IC50.
In the case of `CCn1c2ccccc2c2cc(CNC[C@H]3CC[C@@H](Nc4cc(N(C)C)c5ccccc5n4)CC3)ccc21` [compound 1152], the class is recorded as 3 (Class 3 The value of percent of control at 10^−7 M was more than 60% or the value of IC50 was more than 200 nM.).

Still in this assay, the particulars now being: class 1-3 by percent of control at 10^-7 M or IC50.
For the compound `COc1ccc(Oc2ccc([N+](=O)[O-])cc2C(=O)N[C@H]2CC[C@@H](Nc3nc4c(c(N(C)C)n3)CCCC4)CC2)cc1` [compound 544], the class is 1 (Class 1: The value of percent of control at 10^−7 M was less than 40% or the value of IC50 was less than 50 nM.). Still for that read-out and setting: the value for `COc1cc(COC(=O)N[C@H]2CC[C@@H](Nc3nc4c(c(N(C)C)n3)CCCC4)CC2)c([N+](=O)[O-])cc1OC` [compound 555] was 3 (Class 3 The value of percent of control at 10^−7 M was more than 60% or the value of IC50 was more than 200 nM.).

The same assay, now with this note: class by percent of control at 10^-7 M or IC50.
As for `CN(C)c1cc(N[C@H]2CC[C@@H](NC(=O)Nc3ccccc3Cl)CC2)nc2ccccc12` [compound 2089], the class is listed as 2 (Class 2: The value of percent of control at 10^−7 M was from 40% to 60% or the value of IC′50 was from 50 nM to 200 nM.).

Turning to `COc1ccc(NC(=O)N[C@H]2CC[C@@H](Nc3nc4c(c(N(C)C)n3)CCCC4)CC2)cc1Cl` [compound 1721], the class is 3 (Class 3 The value of percent of control at 10^−7 M was more than 60% or the value of IC50 was more than 200 nM.). With `COC(C(=O)N[C@H]1CC[C@@H](Nc2cc(N(C)C)c3ccccc3n2)CC1)c1ccccc1` (relative stereo) [compound 777], the class was 3 (Class 3 The value of percent of control at 10^−7 M was more than 60% or the value of IC50 was more than 200 nM.). Same read-out and setting: the figure for `CCCCNC(=O)N[C@H]1CC[C@@H](Nc2nccc(N(C)C)n2)CC1` [compound 2215] is 3 (Class 3 The value of percent of control at 10^−7 M was more than 60% or the value of IC50 was more than 200 nM.); for `CN(C)c1ccnc(N[C@H]2CC[C@@H](NC(=O)Nc3ccccc3-c3ccccc3)CC2)n1` [compound 2214] it is 3 (Class 3 The value of percent of control at 10^−7 M was more than 60% or the value of IC50 was more than 200 nM.). In the case of `CN(C)c1cc(N[C@H]2CC[C@@H](CNCCCC#Cc3ccccc3)CC2)nc2ccccc12` [compound 1469], the class was 3 (Class 3 The value of percent of control at 10^−7 M was more than 60% or the value of IC50 was more than 200 nM.). Still for that read-out and setting: the figure for `CCOc1ccc(OCC)c(CNC[C@H]2CC[C@@H](Nc3nccc(N(C)C)n3)CC2)c1` [compound 1290] is 1 (Class 1: The value of percent of control at 10^−7 M was less than 40% or the value of IC50 was less than 50 nM.); for `CN(C)c1cc(N[C@H]2CC[C@@H](NC(=O)c3cn(S(=O)(=O)c4ccccc4)c4ccccc34)CC2)nc2ccccc12` [compound 769] it is 3 (Class 3 The value of percent of control at 10^−7 M was more than 60% or the value of IC50 was more than 200 nM.); for `CN(C)c1nc(N[C@H]2CC[C@@H](NCC3CN(C(c4ccccc4)c4ccccc4)C3)CC2)nc2c1CCCC2` [compound 1497] it is 1 (Class 1: The value of percent of control at 10^−7 M was less than 40% or the value of IC50 was less than 50 nM.). Still for that read-out and setting: the figure for `CC(CCN[C@H]1CC[C@@H](Nc2nc3c(c(N(C)C)n2)CCCC3)CC1)c1ccccc1` (stereo partly shown) [compound 1347] is 3 (Class 3 The value of percent of control at 10^−7 M was more than 60% or the value of IC50 was more than 200 nM.). On the same count and under the same terms, the value for `CN(C)c1cc(N[C@H]2CC[C@@H](CNCc3ccc(N(C)C)c4ccccc34)CC2)nc2ccccc12` [compound 1160] was 3 (Class 3 The value of percent of control at 10^−7 M was more than 60% or the value of IC50 was more than 200 nM.). In the case of `Cc1cccc(C(=O)NC[C@H]2CC[C@@H](Nc3nccc(N(C)C)n3)CC2)c1` [compound 395], the class is recorded as 3 (Class 3 The value of percent of control at 10^−7 M was more than 60% or the value of IC50 was more than 200 nM.). The same measure, in the same setting: the value for `CN(C)c1nc(N[C@H]2CC[C@@H](NC(=O)Nc3cc(F)cc(F)c3)CC2)nc2c1CCCC2` [compound 1804] was 3 (Class 3 The value of percent of control at 10^−7 M was more than 60% or the value of IC50 was more than 200 nM.); that for `COc1cc(CC(=O)N[C@H]2CC[C@@H](Nc3cc(N(C)C)c4ccccc4n3)CC2)ccc1OCc1ccccc1` [compound 736] was 3 (Class 3 The value of percent of control at 10^−7 M was more than 60% or the value of IC50 was more than 200 nM.).

The same assay, now with this note: class by percent of control at 10^−7 M or IC50.
For `Cc1cnc(N[C@H]2CC[C@@H](NCc3ccc(Cl)c(Cl)c3)CC2)nc1N(C)C` [compound 3002], the class is reported as 3 (Class 3 The value of percent of control at 10^−7 M was more than 60% or the value of IC50 was more than 200 nM.). Same read-out and setting: the value for `Cc1cnc(N[C@H]2CC[C@@H](NC(=O)c3cccnc3Oc3ccc(I)cc3)CC2)nc1N(C)C` [compound 2889, N-(cis-4-{[4-(dimethylamino)-5-methylpyrimidin-2-yl]amino}cyclohexyl)-2-(4-iodophenoxy)nicotinamide] was 1 (Class 1: The value of percent of control at 10^−7 M was less than 40% or the value of IC50 was less than 50 nM.); that for `Cc1cc(N(C)C)nc(N[C@H]2CC[C@@H](C(=O)NCc3ccc(Cl)cc3Cl)CC2)n1` [compound 2807, cis-N-(2,4-dichlorobenzyl)-4-{[4-(dimethylamino)-6-methylpyrimidin-2-yl]amino}cyclohexanecarboxamide] was 1 (Class 1: The value of percent of control at 10^−7 M was less than 40% or the value of IC50 was less than 50 nM.).
